Data: ChEMBL document CHEMBL4602695, “Discovery and SARs of 5-Chloro-N4-phenyl-N2-(pyridin-2-yl)pyrimidine-2,4-diamine Derivatives as Oral Available and Dual CDK 6 and 9 Inhibitors with Potent Antitumor Activity” (J Med Chem, 2020)
The source made the active and inactive calls. The calls are words filed in the database; no cut-off is given here.

Key:
[1] = molecular target: CDK9/Cyclin K (Homo sapiens) (UniProt P50750+O75909); details: Sf9
[2] = molecular target: CDK2/Cyclin A2 (Homo sapiens, UniProt P24941); parameters: species or system Sf9
[3] = system: MCF7; experiment: Antiproliferative activity against human MCF7 cells assessed as inhibition of cell proliferation measured after 48 hrs by CCK8 assay; format: functional, cell-based; details: MCF7, 48 h
[4] = system: Jurkat; experiment: Antiproliferative activity against human Jurkat cells assessed as inhibition of cell proliferation measured after 48 hrs by CCK8 assay; format: functional, cell-based
[5] = Cytotoxicity against human L02 cells assessed as inhibition of cell proliferation measured after 48 hrs by CCK8 assay; format: cell-based
[6] = molecular target: CDK6/cyclin D3 (Homo sapiens, UniProt Q00534); parameters: species or system Sf9
Chain of CDK6/cyclin D3 (P30281 whole entry): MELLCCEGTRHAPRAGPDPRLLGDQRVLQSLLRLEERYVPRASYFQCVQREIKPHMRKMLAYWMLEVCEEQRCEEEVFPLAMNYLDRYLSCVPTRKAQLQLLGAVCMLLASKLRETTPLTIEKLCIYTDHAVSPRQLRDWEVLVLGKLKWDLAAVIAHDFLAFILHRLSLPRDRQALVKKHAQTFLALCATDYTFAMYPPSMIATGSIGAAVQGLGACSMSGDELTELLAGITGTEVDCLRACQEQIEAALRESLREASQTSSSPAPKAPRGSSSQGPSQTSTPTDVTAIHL
Chain of CDK6/cyclin D3 (Q00534 whole entry): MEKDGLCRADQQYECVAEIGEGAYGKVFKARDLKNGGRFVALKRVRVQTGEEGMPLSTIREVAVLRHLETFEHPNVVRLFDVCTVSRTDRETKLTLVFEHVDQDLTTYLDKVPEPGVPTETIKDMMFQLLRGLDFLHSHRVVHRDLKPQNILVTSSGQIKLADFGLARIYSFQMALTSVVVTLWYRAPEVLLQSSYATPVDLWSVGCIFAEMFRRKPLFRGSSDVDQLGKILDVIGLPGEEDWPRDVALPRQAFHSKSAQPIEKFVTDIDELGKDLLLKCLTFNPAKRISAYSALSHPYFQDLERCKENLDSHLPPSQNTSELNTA

[7] = molecular target: CDK9/Cyclin K (Homo sapiens, UniProt P50750); experiment: biochemical
Chain of CDK9/Cyclin K (P50750 whole entry): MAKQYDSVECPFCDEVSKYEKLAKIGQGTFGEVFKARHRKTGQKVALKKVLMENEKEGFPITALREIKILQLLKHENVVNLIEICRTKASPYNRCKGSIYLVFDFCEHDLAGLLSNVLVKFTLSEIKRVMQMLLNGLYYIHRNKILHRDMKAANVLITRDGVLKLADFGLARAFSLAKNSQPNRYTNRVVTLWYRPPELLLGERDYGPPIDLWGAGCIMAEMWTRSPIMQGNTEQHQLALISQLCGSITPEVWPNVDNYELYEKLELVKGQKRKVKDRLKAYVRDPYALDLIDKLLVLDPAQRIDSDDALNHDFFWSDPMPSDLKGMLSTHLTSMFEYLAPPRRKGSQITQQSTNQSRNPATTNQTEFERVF
Chain of CDK9/Cyclin K (O75909 whole entry, further chain): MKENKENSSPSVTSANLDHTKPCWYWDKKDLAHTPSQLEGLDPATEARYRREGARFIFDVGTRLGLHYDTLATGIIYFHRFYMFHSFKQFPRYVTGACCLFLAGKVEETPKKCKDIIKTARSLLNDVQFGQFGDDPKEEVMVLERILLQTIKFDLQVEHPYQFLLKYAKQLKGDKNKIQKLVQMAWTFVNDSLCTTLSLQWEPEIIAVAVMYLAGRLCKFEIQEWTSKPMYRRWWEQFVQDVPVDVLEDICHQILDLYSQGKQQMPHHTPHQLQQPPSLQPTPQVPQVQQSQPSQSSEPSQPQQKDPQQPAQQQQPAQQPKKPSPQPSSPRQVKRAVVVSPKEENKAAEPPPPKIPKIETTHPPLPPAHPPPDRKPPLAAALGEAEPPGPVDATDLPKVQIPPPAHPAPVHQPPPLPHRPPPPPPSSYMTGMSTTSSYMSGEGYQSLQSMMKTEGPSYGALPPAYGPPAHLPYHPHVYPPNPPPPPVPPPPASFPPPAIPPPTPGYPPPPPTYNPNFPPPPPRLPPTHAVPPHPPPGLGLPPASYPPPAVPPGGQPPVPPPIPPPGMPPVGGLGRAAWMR

[8] = system: MDA-MB-231; experiment: Antiproliferative activity against human MDA-MB-231 cells assessed as inhibition of cell proliferation measured after 48 hrs by CCK8 assay; format: functional, cell-based; details: MDA-MB-231, 48 h
[9] = Thermodynamic equilibrium solubility in normal saline by HPLC-based shake flask method; format: physicochemical; details: read-out: Therm_solubility
[10] = Thermodynamic equilibrium solubility in water by HPLC-based shake flask method; format: physicochemical; details: read-out: Therm_solubility
[11] = organism: Homo sapiens

Structure (SMILES) | inhibition [1] | IC50 [2] | GI50 [3] | GI50 [4] | GI50 at 48 h [5] | IC50 [6] | IC50 [7] | GI50 [8] | solubility thermodynamic [9] | solubility thermodynamic [10] | Ratio IC50 [11]
CN1CCN(c2ccc(Nc3ncc(Cl)c(Nc4ccc(C(F)(F)F)cc4)n3)nc2)CC1 | inactive | – | – | – | – | – | – | – | – | – | –
CN1CCN(c2ccc(Nc3ncc(Cl)c(Nc4cccc(F)c4)n3)nc2)CC1 | inactive | – | – | – | – | – | – | – | – | – | –
Cc1ccccc1Nc1nc(Nc2ccc(N3CCOCC3)cc2)ncc1Cl | – | 2.68 µM | > 100 µM | 8.36 µM | 5.37 µM | 1.69 µM | 1.12 µM | 11.3 µM | – | – | –
Cc1ccccc1Nc1nc(Nc2ccncc2)ncc1Cl | – | 6.23 µM | 98.5 µM | > 100 µM | > 100 µM | > 10 µM | > 10 µM | 68.1 µM | – | – | –
CCN1CCN(c2ccc(Nc3ncc(Cl)c(Nc4ccccc4C)n3)cc2)CC1 | – | 0.718 µM | 3.16 µM | 2.06 µM | 0.97 µM | 0.114 µM | 0.751 µM | 3.04 µM | – | – | –
Cc1ccccc1Nc1nc(NCc2ccco2)ncc1Cl | – | > 10 µM | > 100 µM | > 100 µM | > 100 µM | > 10 µM | > 10 µM | > 100 µM | – | – | –
COc1ccccc1CNc1nc(Nc2ccc(N3CCN(C)CC3)cn2)ncc1Cl | – | > 10 µM | > 100 µM | 10.8 µM | 25.5 µM | > 10 µM | > 10 µM | 29.3 µM | – | – | –
Cc1ccc(Nc2nc(Nc3ccc(N4CCN(C)CC4)cn3)ncc2Cl)cc1 | – | > 10 µM | 11.4 µM | 30.9 µM | 13.9 µM | 0.088 µM | 1.45 µM | 4.03 µM | – | – | –
CC(=O)Nc1cccc(Nc2nc(Nc3ccc(N4CCN(C)CC4)cn3)ncc2Cl)c1.Cl | – | – | – | – | – | – | – | – | 3960 µg/mL | 7700 µg/mL | –
CN1CCN(c2ccc(Nc3ncc(Cl)c(Nc4ccc(OC(F)(F)F)cc4)n3)nc2)CC1 | inactive | – | – | – | – | – | – | – | – | – | –
CC(C)c1cccc(Nc2nc(Nc3ccc(N4CCN(C)CC4)cn3)ncc2Cl)c1 | – | > 10 µM | 8.64 µM | 12.2 µM | 12.5 µM | 0.452 µM | 0.654 µM | 5.59 µM | – | – | –
Cc1ccccc1Nc1nc(NC2CC2)ncc1Cl | – | > 10 µM | > 100 µM | > 100 µM | > 100 µM | > 10 µM | > 10 µM | > 100 µM | – | – | –
Cc1ccccc1Nc1nc(NC2CCCCC2)ncc1Cl | – | > 10 µM | > 100 µM | > 100 µM | > 100 µM | > 10 µM | > 10 µM | > 100 µM | – | – | –
COc1cccc(Nc2nc(Nc3ccc(N4CCN(C)CC4)cn3)ncc2Cl)c1 | – | 0.701 µM | 7.54 µM | 15.8 µM | 3.47 µM | 0.103 µM | 6.2 µM | 8.51 µM | – | – | –
COc1ccc(Nc2nc(Nc3ccc(N4CCN(C)CC4)cn3)ncc2Cl)cc1 | – | 6.11 µM | 8.45 µM | 11.2 µM | 3.15 µM | 0.606 µM | 1.38 µM | 8.02 µM | – | – | –
Cc1ccccc1Nc1nc(Nc2ccccn2)ncc1Cl | – | 0.643 µM | 31.4 µM | 20.1 µM | 6.15 µM | 2.76 µM | 8.11 to 8.12 µM | 11.2 µM | – | – | –
Cc1ccc(CNc2nc(Nc3ccc(N4CCN(C)CC4)cn3)ncc2Cl)cc1 | – | > 10 µM | 38.1 µM | 12.7 µM | > 100 µM | 1.04 µM | > 10 µM | 18.6 µM | – | – | –
CN1CCN(c2ccc(Nc3ncc(Cl)c(Nc4cccc(OC(F)(F)F)c4)n3)nc2)CC1 | inactive | – | – | – | – | – | – | – | – | – | –
COc1ccc(CCNc2nc(Nc3ccc(N4CCN(C)CC4)cn3)ncc2Cl)cc1 | – | > 10 µM | 38.4 µM | > 100 µM | > 100 µM | > 10 µM | > 10 µM | > 100 µM | – | – | –
Cc1ccccc1Nc1nc(Nc2ccc(N3CCN(C)CC3)cn2)ncc1Cl | – | > 10 µM | 5.21 µM | 8.08 µM | 5.98 µM | 0.0157 to 0.016 µM | 0.152 µM | 7.47 µM | – | – | 10
